# Assay results taken from article PMC6747070, “β-Glucose-1,6-Bisphosphate Stabilizes Pathological Phophomannomutase2 Mutants In Vitro and Represents a Lead Compound to Develop Pharmacological Chaperones for the Most Common Disorder of Glycosylation, PMM2-CDG” (International Journal of Molecular Sciences, 2019).
# What was measured:
# PMM2 (wt-PMM2) [1] = molecular target: T1, PMM2 (wt-PMM2) (Homo sapiens, UniProt O15305); test: thermal shift assay (Sypro Orange); assay type: binding; settings: 0.5 mM ligand, without vanadate; Hepes 20 mM pH 7.5, Mg2+, NaCl, DTT
# T1 construct: recombinant, vector Pet22b+, E. coli BL21(DE3), no tag mentioned; homodimer; DEAE-Sepharose and Superdex 75 purification
# T1 sequence (O15305 2-246): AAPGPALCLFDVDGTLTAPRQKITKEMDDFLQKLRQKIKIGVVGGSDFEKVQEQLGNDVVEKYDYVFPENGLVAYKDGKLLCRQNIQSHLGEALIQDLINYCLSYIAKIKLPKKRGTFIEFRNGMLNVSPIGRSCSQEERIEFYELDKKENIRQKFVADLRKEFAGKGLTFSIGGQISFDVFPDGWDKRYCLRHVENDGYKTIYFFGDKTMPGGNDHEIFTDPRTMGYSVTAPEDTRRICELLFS
# PMM2 (wt-PMM2) [2] = molecular target: T1, PMM2 (wt-PMM2); test: […]-NMR phosphomannomutase assay; assay type: biochemical; settings: inhibitor; βG16P 5 or 50 μM; 1 mM αM1P, activator αG16P 5 μM; Hepes pH 7.3, MgCl2 1 mM, 32 °C
SMILES,dTm (PMM2 (wt-PMM2) [1]),inhibition (PMM2 (wt-PMM2) [2])
O=P(O)(O)O[C@H]1O[C@H](CO)[C@@H](O)[C@H](O)[C@H]1O [αG1P],αG1P is a stabilizer of PMM2 too,
O=P(O)(O)OC[C@H]1O[C@@H](OP(=O)(O)O)[C@H](O)[C@@H](O)[C@@H]1O [βG16P],,βG16P is not an activator and show that it inhibits PMM2
